The results in this text go back to US20240158446A1, “CYCLIC COMPOUND HAVING SELECTIVE INHIBITORY ACTION ON KRAS OVER HRAS AND NRAS” (CHUGAI SEIYAKU KABUSHIKI KAISHA, priority 2021, published 2024).

Like-named read-outs stand apart in the source and are kept apart here. *1 amine or outer side, *2 acyl side, *3 side chain or, on linkers, in order; H or OH if unused. Where a SMILES comes first, the peptide text is derived from it. Bridges are numbered along the chain shown (N, C = ends). [ ]: non-standard residue; d: D form. The star is where a group is joined. hPhe(3-Cl-4-CF3) = N[C@@H](CCc1ccc(C(F)(F)F)c(Cl)c1)C(=O)O; NPrPhe(4-CF3) = CCCN[C@@H](Cc1ccc(C(F)(F)F)cc1)C(=O)O; X30 = C=CCCN([C@@H](Cc1ccc(C)cc1)C(=O)[*:2])[*:1]; NMeGly(cPent) = CN[C@H](C(=O)O)C1CCCC1; Pro(4,4-F2) = O=C(O)[C@@H]1CC(F)(F)CN1; Hyp = O=C(O)[C@@H]1C[C@@H](O)CN1; NMeD = CN[C@@H](CC(=O)O)C(=O)O; NMeL = CN[C@@H](CC(C)C)C(=O)O; Morpholide = C1CN(*)CCO1; NMeA = CN[C@@H](C)C(=O)O; Ac5c = NC1(C(=O)O)CCCC1; Aze = O=C(O)[C@@H]1CCN1; Ac4c = NC1(C(=O)O)CCC1; Sar = CNCC(=O)O

Test [1] deals with GDP-bound NRAS wild-type protein (Homo sapiens, UniProt P01111). Put plainly: Binding to NRAS by surface plasmon resonance (SPR), Single Cycle Kinetics. The settings on record: for NRAS/KRAS (ratio of KD value for NRAS to KD value for KRAS) / NRAS/KRAS (ratio of KD value with respect to NRAS to KD value with respect to KRAS): SPR, GDP-bound NRAS wild-type protein vs GDP-bound KRAS wild-type protein.

Test [2] deals with GDP-bound KRAS wild-type protein (Homo sapiens, UniProt P01116). Nature of the test: Binding to KRAS by surface plasmon resonance (SPR), Single Cycle Kinetics. The settings on record: GDP-bound KRAS wild-type protein, read-out: KRAS KD. (In general: Surface plasmon resonance follows binding to a sensor surface in real time, without labels.)
The target in test [3] is GDP-bound HRAS wild-type protein (Homo sapiens, UniProt P01112). Put plainly: Binding to HRAS by surface plasmon resonance (SPR), Single Cycle Kinetics. The settings on record: for HRAS/KRAS (ratio of KD value for HRAS to KD value for KRAS) / HRAS/KRAS (ratio of KD value with respect to HRAS to KD value with respect to KRAS): SPR, GDP-bound HRAS wild-type protein vs GDP-bound KRAS wild-type protein.

The mark [4] stands for this setting: SPR Single Cycle Kinetics, 1:1 binding model.

One may read the Kd as the concentration at which binding is half-saturated.

Chain of GDP-bound HRAS wild-type protein (P01112 whole entry): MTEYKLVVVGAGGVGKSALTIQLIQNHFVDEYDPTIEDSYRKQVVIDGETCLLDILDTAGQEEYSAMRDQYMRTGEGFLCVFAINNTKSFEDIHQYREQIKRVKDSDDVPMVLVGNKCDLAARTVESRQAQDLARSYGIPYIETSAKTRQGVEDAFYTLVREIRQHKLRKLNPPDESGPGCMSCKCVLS
Chain of GDP-bound NRAS wild-type protein (P01111 whole entry): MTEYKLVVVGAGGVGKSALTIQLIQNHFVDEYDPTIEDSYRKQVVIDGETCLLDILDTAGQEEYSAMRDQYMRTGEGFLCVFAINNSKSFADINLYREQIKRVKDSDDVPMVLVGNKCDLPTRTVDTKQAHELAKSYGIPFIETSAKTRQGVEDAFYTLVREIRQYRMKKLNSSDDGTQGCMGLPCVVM
Chain of GDP-bound KRAS wild-type protein (P01116 whole entry): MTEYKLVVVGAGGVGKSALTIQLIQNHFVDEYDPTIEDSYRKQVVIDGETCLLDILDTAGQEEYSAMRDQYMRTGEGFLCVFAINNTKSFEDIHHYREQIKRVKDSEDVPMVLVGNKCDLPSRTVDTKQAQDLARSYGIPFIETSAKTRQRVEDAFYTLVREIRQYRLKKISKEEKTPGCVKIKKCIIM

For `CCC[C@H]1C(=O)N[C@@H]([C@@H](C)CC)C(=O)N(C)CC(=O)N(C)[C@H]2C/C=C\CCN(C2=O)[C@@H](Cc2ccc(C(F)(F)F)cc2)C(=O)N(C)CC(=O)N[C@@H](CCc2ccc(C(F)(F)F)c(OC)c2)C(=O)N2CCOC[C@H]2C(=O)NC2(CC(C)(C)C2)C(=O)N(C)[C@@H](C(CC)CC)C(=O)N(C)[C@H](C(=O)N(C)C)CC(=O)N1C` [PP2935], the “NRAS/KRAS (ratio of KD value with respect to GDP-bound NRAS wild-type protein to KD value with respect to KRAS)” value in test [1] (SPR KD ratio NRAS/KRAS, class symbols) was “A (a compound having 10 or more and less than 20 is denoted as A)”. Further, the dissociation constant Kd in test [2] (setting [4]) is 1.5 nM. Besides, the “HRAS/KRAS (ratio of KD value with respect to GDP-bound HRAS wild-type protein to KD value with respect to KRAS)” value in test [3] (SPR KD ratio HRAS/KRAS, class symbols) was “A (a compound having 10 or more and less than 20 is denoted as A)”.
Take `CCCN1C(=O)CN(C)C(=O)CN(C)C(=O)[C@H]([C@@H](C)CC)NC(=O)[C@H](CC(C)C)N(C)C(=O)C[C@@H](C(=O)N2CCOCC2)NC(=O)[C@H](C2CCCC2)N(C)C(=O)C2(CCCC2)NC(=O)[C@@H]2C[C@@H](OCC)CN2C(=O)[C@H](CCc2ccc(C(F)(F)F)c(Cl)c2)NC(=O)CN(C)C(=O)[C@@H]1Cc1ccc(C(F)(F)F)cc1` [PP0323] ([NMeL]I[Sar][Sar][NPrPhe(4-CF3)][Sar][hPhe(3-Cl-4-CF3)][Hyp](Et)[Ac5c][NMeGly(cPent)]D-Morpholide; lactam N-11): the “NRAS/KRAS (ratio of KD value for NRAS to KD value for KRAS)” value in test [1] is “B (a compound having 3 or more and less than 10 is denoted as B)”. Besides, the Kd in test [2] (setting [4]) turned out to be 0.25 nM. Further, the “HRAS/KRAS (ratio of KD value for HRAS to KD value for KRAS)” value in test [3] is “B (a compound having 3 or more and less than 10 is denoted as B)”.
On to `CCO[C@@H]1C[C@H]2C(=O)NC3(CCCC3)C(=O)N(C)[C@@H](C3CCCC3)C(=O)N(C)[C@H](C(=O)N(C)C)CC(=O)N(C)[C@@H](CC(C)C)C(=O)N[C@@H]([C@@H](C)CC)C(=O)N(C)CC(=O)N(C)[C@H]3C/C=C\CCN(C3=O)[C@@H](Cc3ccc(C)cc3)C(=O)N(C)CC(=O)N[C@@H](CCc3ccc(C(F)(F)F)c(OC)c3)C(=O)N2C1` [PP2197], for which the “NRAS/KRAS (ratio of KD value for NRAS to KD value for KRAS)” value in test [1] is “A (a compound having 10 or more and less than 20 is denoted as A)”. In addition, in test [2] (SPR, Single Cycle Kinetics), the Kd was 0.15 nM. Besides, in test [3], the “HRAS/KRAS (ratio of KD value for HRAS to KD value for KRAS)” value is “B (a compound having 3 or more and less than 10 is denoted as B)”.
For the compound `CCO[C@@H]1C[C@H]2C(=O)NC3(CCC3)C(=O)N(C)[C@@H](C3CCCC3)C(=O)N(C)[C@H](C(=O)N3CCOCC3)CC(=O)N(C)[C@@H](CC(C)C)C(=O)N[C@@H]([C@@H](C)CC)C(=O)N(C)CC(=O)N(C)[C@H]3CC=CCN(C3=O)[C@@H](Cc3ccc(C(F)(F)F)cc3)C(=O)N(C)CC(=O)N[C@@H](CCc3cc(F)c(C(F)(F)F)c(F)c3)C(=O)N2C1` [PP0832], in test [1], the “NRAS/KRAS (ratio of KD value for NRAS to KD value for KRAS)” value was “C (A compound having a KD ratio of 0.1 or more and less than 3 is denoted as C)”. For the same compound, the dissociation constant Kd in test [2] (SPR, Single Cycle Kinetics) worked out at 0.21 nM. The “HRAS/KRAS (ratio of KD value for HRAS to KD value for KRAS)” value in test [3] was “C (A compound having a KD ratio of 0.1 or more and less than 3 is denoted as C)”.
Take `CCCN1C(=O)[C@@H]2CCN2C(=O)[C@H](C)N(C)C(=O)[C@H]([C@@H](C)CC)NC(=O)[C@H](CC(C)C)N(C)C(=O)C[C@@H](C(=O)N(C)C)N(C)C(=O)[C@H](C2CCCC2)N(C)C(=O)C2(CCC2)NC(=O)[C@@H]2CC(F)(F)CN2C(=O)[C@H](CCc2ccc(C(F)(F)F)c(Cl)c2)NC(=O)CN(C)C(=O)[C@@H]1Cc1ccc(C(F)(F)F)cc1` [PP0437] ([NMeL]I[NMeA][Aze][NPrPhe(4-CF3)][Sar][hPhe(3-Cl-4-CF3)][Pro(4,4-F2)][Ac4c][NMeGly(cPent)][NMeD]-NMe2; lactam N-11): the “NRAS/KRAS (ratio of KD value with respect to NRAS to KD value with respect to KRAS)” value in test [1] was “C (A compound having a KD ratio of 0.1 or more and less than 3 is denoted as C)”. The Kd in test [2] (setting [4]) stood at 0.036 nM. Further, in test [3], the “HRAS/KRAS (ratio of KD value with respect to HRAS to KD value with respect to KRAS)” value is “B (a compound having 3 or more and less than 10 is denoted as B)”.
As to `C=CCCN1C(=O)CN(C)C(=O)CN(C)C(=O)[C@H]([C@@H](C)CC)NC(=O)[C@H](CC(C)C)N(C)C(=O)C[C@@H](C(=O)N2CCOCC2)N(C)C(=O)[C@H](C2CCCC2)N(C)C(=O)C2(CCCC2)NC(=O)[C@@H]2CCCN2C(=O)[C@H](CCc2ccc(C(F)(F)F)c(Cl)c2)NC(=O)CN(C)C(=O)[C@@H]1Cc1ccc(C)cc1` [PP0101] ([NMeL]I[Sar][Sar][X30][Sar][hPhe(3-Cl-4-CF3)]P[Ac5c][NMeGly(cPent)][NMeD]-Morpholide; lactam N-11), the “NRAS/KRAS (ratio of KD value for NRAS to KD value for KRAS)” value in test [1] was “B (a compound having 3 or more and less than 10 is denoted as B)”. The Kd in test [2] (setting [4]) came to 0.16 nM. Also, the “HRAS/KRAS (ratio of KD value for HRAS to KD value for KRAS)” value in test [3] is “C (A compound having a KD ratio of 0.1 or more and less than 3 is denoted as C)”.
Take `CCCN1C(=O)[C@@H]2CCN2C(=O)[C@H](C)N(C)C(=O)[C@H]([C@@H](C)CC)NC(=O)[C@H](CC(C)C)N(C)C(=O)C[C@@H](C(=O)N(C)C)NC(=O)[C@H](C2CCCC2)N(C)C(=O)C2(CCC2)NC(=O)[C@@H]2CCCN2C(=O)[C@H](CCc2ccc(C(F)(F)F)c(Cl)c2)NC(=O)CN(C)C(=O)[C@@H]1Cc1ccc(C(F)(F)F)cc1` [PP0380] ([NMeL]I[NMeA][Aze][NPrPhe(4-CF3)][Sar][hPhe(3-Cl-4-CF3)]P[Ac4c][NMeGly(cPent)]D-NMe2; lactam N-11): in test [1], the “NRAS/KRAS (ratio of KD value for NRAS to KD value for KRAS)” value was “C (A compound having a KD ratio of 0.1 or more and less than 3 is denoted as C)”. For the same compound, the Kd in test [2] (setting [4]) worked out at 0.59 nM. Besides, the “HRAS/KRAS (ratio of KD value for HRAS to KD value for KRAS)” value in test [3] was “B (a compound having 3 or more and less than 10 is denoted as B)”.
In the case of `CCC[C@H]1C(=O)N[C@@H]([C@@H](C)CC)C(=O)N(C2CC2)CC(=O)N(C)[C@H]2C/C=C\CCN(C2=O)[C@@H](Cc2ccc(C)cc2)C(=O)N(C)CC(=O)N[C@@H](CCc2ccc(C(F)(F)F)c(OC)c2)C(=O)N2C[C@H](OCC)C[C@H]2C(=O)N(C)C2(CCC2)C(=O)N(C)[C@@H](C2CCCC2)C(=O)N(C)[C@H](C(=O)N(C)C)CC(=O)N1C` [PP2328, (2S,8S,12R,14S,20S,23S,27S,30S,36S,38Z)-20-cyclopentyl-32-cyclopropyl-12-ethoxy-8-[2-[3-methoxy-4-(trifluoromethyl)phenyl]ethyl]-N,N,4,16,19,22,26,35-octamethyl-30-[(1S)-1-methylpropyl]-3,6,9,15,18,21,25,28,31,34,42-undecaoxo-27-propyl-2-(p-tolylmethyl)spiro[1,4,7,10,16,19,22,26,29,32,35-undecazatricyclo[34.5.1.0^10,14]dotetracont-38-ene-17,1′-cyclobutane]-23-carboxamide], the “NRAS/KRAS (ratio of KD value for NRAS to KD value for KRAS)” value in test [1] is “A (a compound having 10 or more and less than 20 is denoted as A)”. For the same compound, the Kd in test [2] (SPR, Single Cycle Kinetics) turned out to be 0.079 nM. Moreover, the “HRAS/KRAS (ratio of KD value for HRAS to KD value for KRAS)” value in test [3] was “A (a compound having 10 or more and less than 20 is denoted as A)”.
For `CC[C@H](C)[C@@H]1NC(=O)[C@H](CC(C)C)N(C)C(=O)C[C@@H](C(=O)N2CCOCC2)N(C)C(=O)[C@H](C2CCCC2)N(C)C(=O)C2(CCC2)NC(=O)[C@]2(C)CCCN2C(=O)[C@H](CCc2cc(F)c(C(F)(F)F)c(F)c2)NC(=O)CN(C)C(=O)[C@H](Cc2ccc(C(F)(F)F)cc2)N2CCCC[C@@H](C2=O)N(C)C(=O)CN(C)C1=O` [PP0808], in test [1], the “NRAS/KRAS (ratio of KD value with respect to NRAS to KD value with respect to KRAS)” value was “B (a compound having 3 or more and less than 10 is denoted as B)”. In addition, the Kd in test [2] (setting [4]) stood at 0.027 nM. The “HRAS/KRAS (ratio of KD value with respect to HRAS to KD value with respect to KRAS)” value in test [3] was “B (a compound having 3 or more and less than 10 is denoted as B)”.
